Assays:
Enterovirus A71 [1] = assay: Antiviral activity against Enterovirus 71 infected in human RD cells assessed as cell viability after 3 days by MTS assay; assay type: functional, organism-based; conditions: Enterovirus A, 72 h
[2] = Cytotoxicity against human RD cells; assay type: cell-based
[3] = Selectivity index, ratio of CC50 for human RD cells to EC50 for Enterovirus 71; assay type: toxicity, cell-based; conditions: read-out: Ratio CC50/EC50
Enterovirus A71 [4] = assay: Antiviral activity against Enterovirus 71 clinical isolate TW/70902/08 infected in human RD cells assessed as cell viability after 3 days by MTS assay; assay type: functional, organism-based; conditions: Enterovirus A, isolate TW/70902/08, RD, 72 h
Enterovirus A71 [5] = assay: Antiviral activity against Enterovirus 71 clinical isolate 11316 infected in human RD cells assessed as cell viability after 3 days by MTS assay; assay type: functional, organism-based; conditions: Enterovirus A, isolate 11316, RD, 72 h
Enterovirus A71 [6] = assay: Antiviral activity against Enterovirus 71 isolate TW/2429/04 infected in human RD cells assessed as cell viability after 3 days by MTS assay; assay type: functional, organism-based; conditions: Enterovirus A, isolate TW/2429/04, RD, 72 h
Enterovirus A71 [7] = assay: Antiviral activity against Enterovirus 71 clinical isolate TW/96016/08 infected in human RD cells assessed as cell viability after 3 days by MTS assay; assay type: functional, organism-based; conditions: Enterovirus A, isolate TW/96016/08, RD, 72 h
Enterovirus A71 [8] = assay: Antiviral activity against Enterovirus 71 clinical isolate H08300 461#812 infected in human RD cells assessed as cell viability after 3 days by MTS assay; assay type: functional, organism-based; conditions: Enterovirus A, isolate H08300 461#812, RD, 72 h
Enterovirus A71 [9] = assay: Antiviral activity against Enterovirus 71 clinical isolate TW/1956/05 infected in human RD cells assessed as cell viability after 3 days by MTS assay; assay type: functional, organism-based; conditions: Enterovirus A, isolate TW/1956/05, RD, 72 h

Structure (SMILES)	EC50 (Enterovirus A71 [1]) [µM]	CC50 [2] [µM]	selectivity ratio [3]	also measured
OC[C@H]1O[C@@H](n2cnc3c(NCc4cn(COCc5ccccc5)nn4)ncnc32)[C@H](O)[C@@H]1O	> 116	116		
OC[C@H]1O[C@@H](n2cnc3c(NCc4ccccc4)ncnc32)C[C@@H]1O	> 146	> 366		
OC[C@H]1O[C@@H](n2cnc3c(NCCCc4ccccc4)ncnc32)C[C@@H]1O	> 271	> 271		
C[C@H]1O[C@@H](n2cnc3c(NCc4ccccc4)ncnc32)[C@H](O)[C@@H]1O	6.7	> 366	> 54	
CC(C)=CCNc1ncnc2c1ncn2[C@@H]1O[C@H](CO)[C@@H](O)[C@H]1O [RIBOPRINE]	1	5.8	5.8	
OC[C@H]1O[C@@H](n2cnc3c(NC/C=C/c4ccccc4)ncnc32)[C@H](O)[C@@H]1O	0.66	426	645	EC50 (Enterovirus A71 [4]): 2.5 µM; EC50 (Enterovirus A71 [5]): 2.2 µM; EC50 (Enterovirus A71 [6]): 1.16 µM; EC50 (Enterovirus A71 [7]): 2 µM; EC50 (Enterovirus A71 [8]): 0.38 µM; EC50 (Enterovirus A71 [9]): 1 µM
OC[C@H]1O[C@@H](n2cnc3c(NCCc4ccccc4)ncnc32)[C@H](O)[C@@H]1O	1.8	221	123	EC50 (Enterovirus A71 [4]): 8.3 µM; EC50 (Enterovirus A71 [5]): 8.2 µM; EC50 (Enterovirus A71 [6]): 3.7 µM; EC50 (Enterovirus A71 [7]): 5.6 µM; EC50 (Enterovirus A71 [8]): 1.9 µM; EC50 (Enterovirus A71 [9]): 2.7 µM
OC[C@H]1O[C@@H](n2cnc3c(OCc4ccccc4)ncnc32)[C@H](O)[C@@H]1O	5.1	191	37	
O=C(Nc1ncnc2c1ncn2C(CO)OC(CO)CO)c1ccccc1 (stereo unspecified)	> 335	> 335		
OC[C@H]1O[C@@H](n2cnc3c(OCCCc4ccccc4)ncnc32)[C@H](O)[C@@H]1O	> 182	182		
OC[C@H]1O[C@@H](n2cnc3c(NCCOc4ccccc4)ncnc32)C[C@@H]1O	> 135	> 337		
OC[C@H]1O[C@@H](n2cnc3c(NCc4cn(Cc5ccccc5)nn4)ncnc32)[C@H](O)[C@@H]1O	> 228	> 285		
O=C(Nc1ncnc2c1ncn2[C@@H]1O[C@H](CO)[C@@H](O)[C@H]1O)c1ccccc1	12	> 337	> 28	
C[C@H]1O[C@@H](n2cnc3c(NCCc4ccccc4)ncnc32)[C@H](O)[C@@H]1O	> 281	463		
OC[C@H]1O[C@@H](n2cnc3c(NCCCc4ccccc4)ncnc32)[C@H](O)[C@@H]1O	1.8	189	105	
OC[C@H]1O[C@@H](n2cnc3c(NCC#Cc4ccccc4)ncnc32)[C@H](O)[C@@H]1O	0.58	72	124	
OC[C@H]1O[C@@H](n2cnc3c(NCCCOc4ccccc4)ncnc32)[C@H](O)[C@@H]1O	> 311	> 311		
OC[C@H]1O[C@@H](n2cnc3c(NCc4ccccc4)ncnc32)[C@H](O)[C@@H]1O [N6-BENZYLADENOSINE]	0.28	4	14	
OC[C@H]1O[C@@H](n2cnc3c(NCCCCc4ccccc4)ncnc32)[C@H](O)[C@@H]1O	> 250	> 313		
OC[C@H]1O[C@@H](n2cnc3c(NCc4ccco4)ncnc32)[C@H](O)[C@@H]1O [KINETIN RIBOSIDE]	1.4	7.8	5.6	
OC[C@H]1O[C@@H](n2cnc3c(Nc4ccccc4)ncnc32)[C@H](O)[C@@H]1O [N6-PHENYLADENOSINE]	> 291	372		
OCCn1cc(CNc2ncnc3c2ncn3[C@@H]2O[C@H](CO)[C@@H](O)[C@H]2O)nn1	> 317	317		
OC[C@H]1O[C@@H](n2cnc3c(NCCOc4ccccc4)ncnc32)[C@H](O)[C@@H]1O	4.3	107	25	
c1ccc(CNc2ncnc3nc[nH]c23)cc1 [6-BENZYLAMINOPURINE]	0.42	547	1300	
OC[C@H]1O[C@@H](n2cnc3c(NCOCc4ccccc4)ncnc32)[C@H](O)[C@@H]1O	3	525	175	
OC[C@H]1O[C@@H](n2cnc3c(NCCc4ccccc4)ncnc32)C[C@@H]1O	> 281	> 352		
Cn1cc(CNc2ncnc3c2ncn3[C@@H]2O[C@H](CO)[C@@H](O)[C@H]2O)nn1	> 136	136		
OC[C@H]1O[C@@H](n2cnc3c(OCCc4ccccc4)ncnc32)[C@H](O)[C@@H]1O	> 8.5	8.5		
CC(C)=CCNc1ncnc2nc[nH]c12	> 325	325		
C=CCC#CCNc1ncnc2c1ncn2[C@@H]1O[C@H](CO)[C@@H](O)[C@H]1O	4.9	> 434	> 88	
